We go through five compounds from article PMC7277860, “Viridistratins A−C, Antimicrobial and Cytotoxic Benzo[j]fluoranthenes from Stromata of Annulohypoxylon viridistratum (Hypoxylaceae, Ascomycota)” (Biomolecules, 2020).

Each structure is given as a SMILES string. ≈ marks a conversion by molar mass, not a printed value.

Common to all, as to assay: MIC serial dilution assay
What all share (format): cell-based

One test has as its system Pseudomonas aeruginosa. The following applies: Pseudomonas aeruginosa PA14; overnight, 37 °C; reference gentamicin 0.1 mg/mL; read-out: Minimum Inhibitory Concentration (MIC). Here is the method:
(§1) Compounds 1, 2, 4 and 5 were dissolved in MeOH (1 mg/mL) for the antimicrobial activity assay, while compound 3 was dissolved in MeOH: DMSO 9+1 (1 mg/mL). The solvents were also used as negative controls.
(§2) Minimum inhibitory concentrations (MIC) were determined in a serial dilution assay, as described previously; a detailed protocol can be found in the Supporting Information. The compounds (1 mg/mL) were diluted to a range of 66.7 to 0.52 µg/mL and incubated with the test organisms overnight. Inhibition of growth was visually evaluated the next day: the MIC is defined as the lowest concentration of the test compound where no growth of the test organism was observed. Various test organisms of fungal and bacterial origin were tested to cover a broad range of microorganisms. This selection is also being used as a standard test panel in our attempts to discover new anti-infectives, as it represents a broad spectrum of pathogens of clinical interest, as well as sensitive indicator strains (bacteria: Bacillus subtilis, Staphylococcus aureus, Micrococcus luteus, Chromobacterium violaceum, Escherichia coli and Pseudomonas aeruginosa; mycobacteria: Mycolicibacterium smegmatis and fungi: Candida albicans, Schizosaccharomyces pombe, Mucor hiemalis, Pichia anomala and Rhodotorula glutinis).
(§3) Protocol: Antimicrobial Activi ty Assay
(§4) The assay was conducted as a minimum inhi bitory concentration (MIC) assay in 96-well ro und-bottom mi crotiter pl ate s usi ng the p ar ameter s su mm ari zed i n T a bl e S 1 and as already described i n [S1].
(§5) Stocks of the test organi sms were generated by growing the organisms o ver ni ght i n 50 mL shaki ng fl asks fi ll ed wi th 25 mL of the growth medi um at 140 rpm (for media and temperatures see Table S1). If the organisms were well grown the ne xt day, which was checked by occurrence of an optical density (OD)>30 of the suspension (OD600 nm for bacteria, OD548 nm for fungi and M. smegma tis) , aliquots of these were stored i n 1.5 mL reaction tube s in a freezer at −80 °C for up to 12 mo nths . Upon use, aliquots were unth awed and the OD of the suspension measured and adjusted by diluting with the respective growth medi um. OD600 nm w as adj usted to 0.01 and OD548 nm to 0.1.
(§6) Subse que ntly, 150 µL o f the adjusted suspensions were added to all wells of a 96-wel l microtiter pl ate (one test organi sm per plate). In row A, additional 130 µL of suspensions plus 20 µL of the test compounds (1 mg/mL) and the controls (one compound/column) were added. MeOH as well as MeOH:DMSO 9+1 were used as negative controls, while different positive controls (refer ences) were used for the test organisms (see Tabl e S1). Then, starti ng from row A, 150 µ L of the suspension were transferred to the next row, the contents thoroughly mixed, and 150 µ L transferred to the following row.
(§7) The remaining 150 µ L after row H were discarded. […]
(§8) compounds, ranging from 66.7 µg/mL i n row A to 0.52 µg/mL i n row H.
(§9) The microtiter plates were then incubated overnight o n a microplate shaker at 800 rpm at 30 or 37 °C (see Table S1) and were visually evaluated the next day. The MIC is defined as the lowest concentration were no growth of the test organism was o bserved. A lower MIC thus corresponds to a higher antimicrobial activity of the test compound.
(§10) Table S1: MIC assay ex per i men t parameters test organism strain No. growth incubation positive control (reference) […]
Pseudomonas a erugi nosa PA14 MHB 1 37 gent amici n 0.1 mg/mL […]
(§11) Rhodotorula glutinis DSM10134 MYC 3 30 nyst ati n 1.0 mg/mL
(§12) 1 MHB: Müller-Hinton Broth (SN X927.1, Ca r l Roth GmbH, Karlsruhe, Germany) 2 7H9+ADC: Middlebrook 7H9 Broth Base + Middlebrook ADC Growth Supplement (SN M0678+M0553, Merck, Darmstadt, Germany)
(§13) 3 MYC: 1 % w/v, bacto peptone, 1% w/v yeast extract, 2 % w /v glycerol, pH 6.3 [S1] Helaly, S.E.; Ashrafi, S.; Teponno, R.B.; Bernecker, S.; Dababat, A.A.; Maier, W.; Stadler, M.
(§14) Nematicidal Cyclic Lipodepsipeptides and a Xanthocillin Derivative from a Phaeosphariaceous […]

The next test has as its system Mucor hiemalis. The following applies: Mucor hiemalis DSM2656; overnight, 30 °C; reference nystatin 1 mg/mL; read-out: Minimum Inhibitory Concentration (MIC). Here is the method: as §1, §2, §3, §4, §5, §6, §7, §8, §9, §10
Mucor hiemalis DSM2656 MYC 3 30 nyst ati n 1.0 mg/mL […]
as §11, §12, §13, §14

The subject of a further test is Rhodotorula glutinis. The following applies: Rhodotorula glutinis, DSM10134, Rhodotorula glutinis DSM10134; overnight, 30 °C; reference nystatin 1 mg/mL; read-out: Minimum Inhibitory Concentration (MIC). As to the method:
as §1, §2, §3, §4, §5, §6, §7, §8, §9, §10, §11, §12, §13, §14

The subject of test [1] is Mycolicibacterium smegmatis. The following applies: Mycolicibacterium smegmatis ATCC700084; overnight, 37 °C; reference kanamycin 0.1 mg/mL; read-out: Minimum Inhibitory Concentration (MIC). As to the method:
as §1, §2, §3, §4, §5, §6, §7, §8, §9, §10, §11, §12, §13, §14

Another test has as its system Staphylococcus aureus. The following applies: Staphylococcus aureus DSM346; overnight, 30 °C; reference oxytetracycline 0.1 mg/mL; read-out: Minimum Inhibitory Concentration (MIC). Here is the method:
as §1, §2, §3, §4, §5, §6, §7, §8, §9, §10
Staphylococcus aureus DSM346 MHB 1 30 oxytetr acyclin 0.1 mg/mL […]
as §11, §12, §13, §14

For a further test, the system named is Pichia anomala. The following applies: Hansenula anomala; Pichia anomala DSM6766; overnight, 30 °C; reference nystatin 1 mg/mL; read-out: Minimum Inhibitory Concentration (MIC). Here is the method: as §1, §2, §3, §4, §5, §6, §7, §8, §9, §10
Pichia anomala DSM6766 MYC 3 30 nyst ati n 1.0 mg/mL
as §11, §12, §13, §14

The next test relates to Bacillus subtilis. The following applies: Bacillus subtilis DSM10; overnight, 30 °C; reference oxytetracycline 1 mg/mL; read-out: Minimum Inhibitory Concentration (MIC). As to the method: as §1, §2, §3, §4, §5, §6, §7, §8, §9, §10
Bacillus subtilis DSM10 MHB 1 30 oxytetr acyclin 1.0 mg/mL […]
as §11, §12, §13, §14

Test [2] has as its system Chromobacterium violaceum. The note with it: Chromobacterium violaceum DSM30191; overnight, 30 °C; reference oxytetracycline 0.1 mg/mL; read-out: Minimum Inhibitory Concentration (MIC). Here is the method:
as §1, §2, §3, §4, §5, §6, §7, §8, §9, §10
Chromobacterium DSM30191 MHB 1 30 oxytetr acyclin 0.1 mg/mL […]
as §11, §12, §13, §14

A further test concerns Micrococcus luteus. The following applies: overnight, 30 °C, reference oxytetracycline 0.1 mg/mL; for MIC: Micrococcus luteus, DSM1790, Micrococcus luteus DSM1790, read-out: Minimum Inhibitory Concentration (MIC). Here is the method:
as §1, §2, §3, §4, §5, §6, §7, §8, §9, §10
Micrococcus luteu s DSM1790 MHB 1 30 oxytetr acyclin 0.1 mg/mL […]
as §11, §12, §13, §14

With `Oc1cccc2c3c(ccc12)-c1ccc(O)c2c(O)ccc-3c12` [Compound 1, viridistratin A], the MIC in the test on Pseudomonas aeruginosa is > 66.7 µg/mL; with Mucor hiemalis it was 66.7 µg/mL (≈ 222 µM); in the test on Rhodotorula glutinis it was 33.3 µg/mL (≈ 111 µM); in test [1], > 66.7 µg/mL; in the test with Staphylococcus aureus, 66.7 µg/mL (≈ 222 µM); in the test with Pichia anomala it was 66.7 µg/mL (≈ 222 µM). Further, the MIC with Bacillus subtilis was 33.3 µg/mL (≈ 111 µM); in [2], 66.7 µg/mL (≈ 222 µM); in the test with Micrococcus luteus it was 16.7 µg/mL (≈ 55.6 µM).

As to `COc1cccc2c3c(ccc12)-c1ccc(O)c2c(O)ccc-3c12` [Compound 2, viridistratin B], the MIC with Pseudomonas aeruginosa was > 66.7 µg/mL; in the test on Mucor hiemalis, 4.2 µg/mL (≈ 13.4 µM); in the test with Rhodotorula glutinis, 33.3 µg/mL (≈ 106 µM); in test [1], 33.3 µg/mL (≈ 106 µM); in the test on Staphylococcus aureus, 16.7 µg/mL (≈ 53.1 µM); in the test with Pichia anomala it was 33.3 µg/mL (≈ 106 µM). Also, the MIC in the test with Bacillus subtilis came out at 16.7 µg/mL (≈ 53.1 µM); in test [2], 66.7 µg/mL (≈ 212 µM); in the test with Micrococcus luteus it was 8.3 µg/mL (≈ 26.4 µM).

For `COc1cccc2c3c(ccc12)-c1ccc(O)c2c(OC)ccc-3c12` [Compound 3, viridistratin C], the MIC (with Pseudomonas aeruginosa; in the test with Mucor hiemalis; in the test with Rhodotorula glutinis; in test [1]; in the test with Staphylococcus aureus; with Pichia anomala) was > 66.7 µg/mL each time. Further, the MIC (in the test on Bacillus subtilis; in [2]) was > 66.7 µg/mL each time.

`O=C1C[C@H]2C(=C3CCC(=O)c4c(O)ccc2c43)c2cccc(O)c21` [Compound 4, truncatone A]: the MIC (with Pseudomonas aeruginosa; in the test on Mucor hiemalis; in the test on Rhodotorula glutinis; in test [1]; with Staphylococcus aureus; in the test with Pichia anomala) was > 66.7 µg/mL each time. The MIC in the test on Bacillus subtilis is > 66.7 µg/mL; in [2], > 66.7 µg/mL; in the test with Micrococcus luteus, 16.7 µg/mL (≈ 52.5 µM). Also, the “Minimum Inhibitory Concentration (MIC)” value with Micrococcus luteus (Micrococcus luteus DSM1790) amounted to 33.3 µg/mL.

Take `O=C1CCC(=O)c2c1c(O)cc1c2-c2ccc(O)c3c(O)ccc-1c23` [Compound 5, truncatone C]: the MIC is > 66.7 µg/mL with Pseudomonas aeruginosa; 66.7 µg/mL (≈ 201 µM) in the test with Mucor hiemalis; > 66.7 µg/mL in test [1]; > 66.7 µg/mL in the test on Staphylococcus aureus; > 66.7 µg/mL in the test with Pichia anomala; 66.7 µg/mL (≈ 201 µM) in the test on Bacillus subtilis. The values for the MIC (in [2]; in the test with Micrococcus luteus) were > 66.7 µg/mL and 16.7 µg/mL (≈ 50.3 µM), respectively.
